The values below come from PMC3433420 (PLoS ONE, 2012).

Residues, ends and D or L forms follow the SMILES beside them. Some results are limits rather than exact numbers.

Assay [1] has as its target T1, PIK3R3-C SH2 domain (Homo sapiens, UniProt Q92569).
T1 construct: thioredoxin; made in house; host or cells: E. coli BL21(DE3)pLysS
The experiment in a line: biochemical. The format is binding. The conditions noted are these: FP, PIK3R3-C; mean; NA = no interaction detected.

The target of assay [2] is T2, PLCG1-C SH2 domain (Homo sapiens, UniProt P19174).
T2 construct: The 6X His-tagged SH2 domain proteins used in the assay, PLCG1-C, SHC4, VAV2; thioredoxin; made in house; host or cells: E. coli BL21(DE3)pLysS
T2 sequence (P19174 668-756 limits assumed): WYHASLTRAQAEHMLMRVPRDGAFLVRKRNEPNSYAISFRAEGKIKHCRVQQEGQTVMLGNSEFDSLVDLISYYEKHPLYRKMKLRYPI
Description: biochemical. The conditions noted are these: FP, PLCG1-C; mean; NA = no interaction detected. The format is binding.

Assay [3] has as its target T2, PLCG1-C SH2 domain. Description: Surface plasmon resonance (Biacore 3000). The conditions noted are these: SPR, NA = no interaction detected. The format is binding. The protocol:
(§1) All SPR experiments were performed using Biacore 3000 (GE HealthCare, Piscataway, NJ) instrumentation. 6X His-tagged SH2 domain proteins were immobilized on a nitriloacetic acid (NTA) sensor chip (GE HealthCare, Piscataway, NJ) charged with Ni^2+ ions. Dye-free ErbB family peptides were applied to the sensor chip in a single flow cell in solution phase (while the other flow cell was used as a reference control) and binding events were measured under equilibrium conditions. FP false positive [drawing 7] (FPR), false discovery [drawing 8] (FDR), and false negative [drawing 9] (FNR) rates were calculated by defining true positives (TP) as interactions detected by both FP and SPR, true negatives (TN) as interactions detected by neither FP nor SPR; false positives as interactions identified by FP but not validated by SPR; and false negatives (FN) as interactions missed by FP but detected by SPR. Additional details for all methods are provided in the Supplementary Methods.
(§2) A randomly selected set of 12 recombinant SH2 domain proteins and unlabeled (rhodamine dye free) peptides (9 ErbB, 2 GAB1, 2 KIT, 2 MET) were generated for the surface plasmon resonance (SPR) validation study. The 6X His-tagged SH2 domain proteins used in the assay, PLCG1-C, SHC4, VAV2, TNS3, PIK3R3-C, SYK-C, PIK3R1-N, SUPT6H, CRKL, TEC, SHB, and SHC3 were produced and purified as previously described (see “SH2 and PTB domain proteins” section and Jones et al., 2006). Fresh protein stocks were generated so as to avoid bias incurred from proteins previously used in the FP assays. 13-mer peptides corresponding to ErbB1 pY801, ErbB1 pY900, ErbB1 pY978, ErbB1 pY1069, ErbB2 pY685, ErbB pY803, ErbB3 pY912, ErbB4 pY833, ErbB4 pY906, GAB1 pY183, GAB1 pY472, KIT pY570, KIT pY936, MET pY1093 and MET pY1313, were synthesized successfully for the assay using previously described approaches (see “FP competitor peptide synthesis” section). For SPR detection via the Biacore 3000 (GE HealthCare, Piscataway, NJ), His-tagged SH2 domains were immobilized on Biacore NTA sensor chips (GE HealthCare, Piscataway, NJ) pre-charged with Ni^2+ ions in one flow cell while the second served as a negative control reference cell. Peptides were introduced in solution phase to both cells and relative response units (RUs) were recorded from output sensograms. Nine concentrations of peptide and a buffer control, in duplicate, were used to determine KDs using the equilibrium method (best-fit simultaneous modeling for peptide association and disassociation curves).
A general note: SPR reads the build-up and loss of mass on a sensor chip optically.

Assay [4] deals with T1, PIK3R3-C SH2 domain. Description: Surface plasmon resonance (Biacore 3000). The format is binding. The conditions noted are these: SPR, NA = no interaction detected. The protocol: as §1, §2
The target in assay [5] is T3, RASA1-N SH2 domain (Homo sapiens, UniProt P20936).
T3 sequence (P20936 181-272 limits assumed): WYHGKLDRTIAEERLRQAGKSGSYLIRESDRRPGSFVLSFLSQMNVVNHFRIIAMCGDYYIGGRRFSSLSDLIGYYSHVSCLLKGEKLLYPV
The experiment in a line: FP saturation binding assay.

Another assay deals with T4, SHC1-PTB domain (Homo sapiens, UniProt P29353).
T4 sequence (P29353 156-339 limits assumed): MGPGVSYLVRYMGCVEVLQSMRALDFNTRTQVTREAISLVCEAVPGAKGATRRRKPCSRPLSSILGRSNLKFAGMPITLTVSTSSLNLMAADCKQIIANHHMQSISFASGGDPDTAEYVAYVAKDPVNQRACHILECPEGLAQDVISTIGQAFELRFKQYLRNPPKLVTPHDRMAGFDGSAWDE
Description: FP saturation binding assay.

Assay [6] has as its target T5, PLCG1-NC tandem SH2 domains (Homo sapiens, UniProt P19174).
T5 construct: the tandem protein was included in our analysis with all internal amino acids linking the domains; 6X His; thioredoxin; made in house; host or cells: E. coli BL21(DE3)pLysS
T5 sequence (P19174 550-756 limits assumed): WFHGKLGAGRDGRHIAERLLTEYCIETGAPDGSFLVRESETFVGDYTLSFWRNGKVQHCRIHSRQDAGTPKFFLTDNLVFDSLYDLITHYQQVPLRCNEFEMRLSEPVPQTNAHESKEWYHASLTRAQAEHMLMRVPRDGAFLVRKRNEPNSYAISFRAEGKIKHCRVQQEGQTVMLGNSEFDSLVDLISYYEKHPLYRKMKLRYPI
Description: FP saturation binding assay. The note with it: Protein PLCG1-NC; FP saturation binding, high-confidence ErbB interactions; mean over replicate hits.

The target in assay [7] is PIK3R2-NC tandem SH2 domains (Homo sapiens, UniProt O00459). The experiment in a line: FP saturation binding assay.
Sequence of PIK3R2-NC tandem SH2 domains (O00459 330-716 limits assumed): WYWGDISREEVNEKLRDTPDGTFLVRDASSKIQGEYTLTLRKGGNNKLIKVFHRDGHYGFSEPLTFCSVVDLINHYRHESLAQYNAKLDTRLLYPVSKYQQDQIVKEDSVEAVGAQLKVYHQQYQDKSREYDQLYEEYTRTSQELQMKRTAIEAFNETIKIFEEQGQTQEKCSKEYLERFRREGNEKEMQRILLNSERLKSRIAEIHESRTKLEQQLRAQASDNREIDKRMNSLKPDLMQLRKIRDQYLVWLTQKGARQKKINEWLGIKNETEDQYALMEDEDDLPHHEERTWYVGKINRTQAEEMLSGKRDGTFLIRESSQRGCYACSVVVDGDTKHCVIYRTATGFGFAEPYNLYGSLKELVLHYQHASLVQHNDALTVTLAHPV
A further assay deals with T6, YES1 SH2 domain (Homo sapiens, UniProt P07947).
T6 construct: 6X His; thioredoxin; made in house; host or cells: BL21(DE3)pLysS E. coli
T6 sequence (P07947 158-255 limits assumed): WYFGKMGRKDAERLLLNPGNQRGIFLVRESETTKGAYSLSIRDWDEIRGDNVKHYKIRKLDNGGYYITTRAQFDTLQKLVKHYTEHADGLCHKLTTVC
Description: FP saturation binding assay. The conditions noted are these: Protein YES1; FP saturation binding, high-confidence ErbB interactions; mean over replicate hits. The essentials: (§3)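 Rhodamine-labeled peptides (10 nM final) were titrated with 12 SH2 domain concentrations (0.002–10 µM) in 20 mM HEPES, 100 mM KCl, 0.1% Tween-20, 5 mM DTT, pH 7.8. After 20 min at room temperature in the dark, FP (ex 530/em 555 nm) was read. KDs came from nonlinear least-squares fits.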

The target of another assay is GRB7 SH2 domain (Homo sapiens, UniProt Q14451). The experiment in a line: FP saturation binding assay. The conditions noted are these: KD for GRB7, FP saturation assay.
Sequence of GRB7 SH2 domain (Q14451 431-527 limits assumed): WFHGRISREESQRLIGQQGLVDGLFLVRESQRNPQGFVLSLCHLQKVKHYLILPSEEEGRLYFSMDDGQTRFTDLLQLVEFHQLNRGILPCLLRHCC
Assay [8] addresses T3, RASA1-N SH2 domain. Description: FP competition assay. The assay is classed as binding. On the set-up: 6X His; thioredoxin; made in house; host or cells: E. coli BL21(DE3)pLysS. The conditions noted are these: RASA1N; labeled peptide ErbB2pY1196; Fig. 3 graph A; read-out: Ki (obs). The procedure: Unlabeled phosphopeptides were synthesized with some modifications to the previously described protocol. […] Unlabeled competitor peptides were prepared at 11 serial 1∶3 dilutions in assay buffer; one control with no unlabeled competitor peptides was also included with each experimental set. The fluorescent peptide, protein, and unlabeled peptide mixtures were allowed to incubate for a minimum of 20 minutes in 384-well plates and polarization signals were measured using the Analyst GT multimode reader as previously described above. Inhibition curves were constructed by four-parameter log-logistic regression using the “drc” package in R with the parameters for maximum and minimum fluorescence fixed according to Z’ factor positive and negative control values. IC50 values were estimated from these fits under a one-site competition binding model and Ki calculated according to the equation developed by.

Another assay addresses T7, SRC SH2 domain (Homo sapiens, UniProt P12931).
T7 construct: between the c-Src SH2 domain and ErbB1 in our FP assay; 6X His; thioredoxin; made in house; host or cells: E. coli BL21(DE3)pLysS
Description: FP saturation binding assay. The note with it: protein SRC; FP, high-confidence ErbB interactions; mean of replicate hits. In outline:
as §3

T7 sequence (P12931 151-248 limits assumed): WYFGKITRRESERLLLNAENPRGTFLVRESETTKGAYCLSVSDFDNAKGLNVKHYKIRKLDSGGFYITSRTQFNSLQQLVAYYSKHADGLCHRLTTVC

Broadly, the Kd is a measure of binding affinity in units of concentration. A high value points to a looser complex. As for `CC(C)C[C@H](NC(=O)[C@H](CCC(=O)O)NC(=O)[C@H](Cc1c[nH]c2ccccc12)NC(=O)[C@@H](NC(=O)[C@@H](NC(=O)[C@@H](NC(=O)CNC(=O)[C@H](Cc1ccc(OP(=O)(O)O)cc1)NC(=O)[C@H](CO)NC(=O)[C@H](Cc1c[nH]c2ccccc12)NC(=O)[C@@H](NC(=O)[C@@H](N)CC(=O)O)C(C)C)C(C)C)[C@@H](C)O)C(C)C)C(=O)N[C@@H](CC(=O)O)C(=O)O` [ErbB1 900], the Kd at PIK3R3-C SH2 domain [1] was 5.83 µM; at PLCG1-C SH2 domain [2] it was 15.5 µM; on PLCG1-C SH2 domain [3] it was 10.9 µM; on PIK3R3-C SH2 domain [4], 1.47 µM.

As for `CC(C)C[C@H](NC(=O)[C@H](CC(N)=O)NC(=O)[C@H](CC(=O)O)NC(=O)[C@@H](N)Cc1ccccc1)C(=O)N[C@@H](Cc1ccc(OP(=O)(O)O)cc1)C(=O)N[C@@H](Cc1ccc(O)cc1)C(=O)N[C@@H](Cc1c[nH]c2ccccc12)C(=O)N[C@@H](CC(=O)O)C(=O)N[C@@H](CCC(N)=O)C(=O)N[C@@H](CC(=O)O)C(=O)N1CCC[C@H]1C(=O)N1CCC[C@H]1C(=O)N[C@@H](CCC(=O)O)C(=O)N[C@@H](CC(=O)O)C(=O)O` [ErbB2 1221 13-mer] (HELM PEPTIDE1{F.D.N.L.[O=C([C@H](Cc1ccc(OP(=O)(O)O)cc1)N[*:1])[*:2]].Y.W.D.Q.D.P.P.E.D}$$$$V2.0), the Kd amounted to 1.12 µM at RASA1-N SH2 domain [5]; 1.98 µM on SHC1-PTB domain; 2.27 µM in [6]; 11.2 µM in assay [7]; 2.41 µM at YES1 SH2 domain.

In general, Ki refers to a measure of affinity in units of concentration, obtained from inhibition or displacement. In the case of `CSCC[C@H](NC(=O)[C@H](Cc1ccc(O)cc1)NC(=O)[C@H](CCC(=O)O)NC(=O)[C@H](Cc1ccc(OP(=O)(O)O)cc1)NC(=O)[C@H](CC(=O)O)NC(=O)[C@H](CCC(=O)O)NC(=O)[C@H](CC(=O)O)NC(=O)[C@@H]1CCCN1)C(=O)N[C@@H](CC(N)=O)C(=O)N[C@@H](CCCNC(=N)N)C(=O)N[C@@H](CCC(N)=O)C(=O)N[C@@H](CCCNC(=N)N)C(=O)N[C@@H](CC(=O)O)C(=O)O` [ErbB3 pY1260] (HELM PEPTIDE1{P.D.E.D.[O=C([C@H](Cc1ccc(OP(=O)(O)O)cc1)N[*:1])[*:2]].E.Y.M.N.R.Q.R.D}$$$$V2.0), the Ki at RASA1-N SH2 domain [5] (read-out: Ki ( exp FP), competing peptide, RASA1N, Ki expected from FP, NI = no interaction) is > 20 µM; on RASA1-N SH2 domain [8], 38.8 µM. On GRB7 SH2 domain, the Kd was ≤ 0.1 µM.

Consider `CC[C@H](C)[C@H](NC(=O)[C@@H](N)CCC(=O)O)C(=O)NCC(=O)N[C@@H](Cc1c[nH]cn1)C(=O)N[C@@H](CO)C(=O)N1CCC[C@H]1C(=O)N1CCC[C@H]1C(=O)N1CCC[C@H]1C(=O)N[C@@H](C)C(=O)N[C@@H](Cc1ccc(OP(=O)(O)O)cc1)C(=O)N[C@H](C(=O)N1CCC[C@H]1C(=O)N[C@@H](CCSC)C(=O)N[C@@H](CO)C(=O)NCC(=O)N[C@@H](CC(N)=O)C(=O)N[C@@H](CCC(N)=O)C(=O)N[C@@H](CC(=O)O)C(=O)O)[C@@H](C)O` [ErbB4 1056 18-mer] (HELM PEPTIDE1{E.I.G.H.S.P.P.P.A.[O=C([C@H](Cc1ccc(OP(=O)(O)O)cc1)N[*:1])[*:2]].T.P.M.S.G.N.Q.D}$$$$V2.0), for which the Kd at SRC SH2 domain was 9.47 µM.
